Series [1] is described as follows: Apparent permeability from apical to basolateral side in human intestinal Caco2 cells. The following applies: Caco-2. The class given is ADME, cell-based. On the technique in general: Caco-2 cells form a polarised layer with tight junctions and transporters.
The target in a further series is T1, Ephrin type-B receptor 4 (Homo sapiens, UniProt P54760).
T1 sequence (P54760 whole entry): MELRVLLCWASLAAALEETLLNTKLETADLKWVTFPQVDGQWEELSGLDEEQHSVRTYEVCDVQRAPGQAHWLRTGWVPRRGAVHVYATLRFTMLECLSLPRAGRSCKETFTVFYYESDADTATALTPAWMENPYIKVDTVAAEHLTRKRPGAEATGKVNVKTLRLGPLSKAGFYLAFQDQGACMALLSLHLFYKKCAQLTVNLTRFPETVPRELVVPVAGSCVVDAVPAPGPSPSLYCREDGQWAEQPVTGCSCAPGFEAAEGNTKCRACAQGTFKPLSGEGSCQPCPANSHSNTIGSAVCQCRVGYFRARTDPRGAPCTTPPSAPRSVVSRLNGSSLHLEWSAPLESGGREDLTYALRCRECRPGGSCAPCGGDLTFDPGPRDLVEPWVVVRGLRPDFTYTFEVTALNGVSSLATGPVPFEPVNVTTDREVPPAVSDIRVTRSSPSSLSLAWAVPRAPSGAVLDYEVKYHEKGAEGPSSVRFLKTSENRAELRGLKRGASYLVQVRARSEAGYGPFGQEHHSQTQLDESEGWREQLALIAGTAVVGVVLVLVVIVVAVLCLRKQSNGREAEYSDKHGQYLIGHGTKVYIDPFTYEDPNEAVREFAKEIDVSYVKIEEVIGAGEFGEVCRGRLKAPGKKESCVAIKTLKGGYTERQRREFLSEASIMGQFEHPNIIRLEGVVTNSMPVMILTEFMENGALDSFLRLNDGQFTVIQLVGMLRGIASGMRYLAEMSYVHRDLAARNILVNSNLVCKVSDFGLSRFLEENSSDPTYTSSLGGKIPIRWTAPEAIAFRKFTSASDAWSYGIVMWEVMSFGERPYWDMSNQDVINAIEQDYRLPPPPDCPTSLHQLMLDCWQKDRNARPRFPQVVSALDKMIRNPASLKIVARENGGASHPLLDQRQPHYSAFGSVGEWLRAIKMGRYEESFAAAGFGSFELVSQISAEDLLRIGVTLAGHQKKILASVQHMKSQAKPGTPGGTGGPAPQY
Description: Inhibition of EPHB4 (unknown origin).

Series [2] concerns the target Tyrosine-protein kinase Lck (Homo sapiens, UniProt P06239). Briefly: Inhibition of LCK (unknown origin).
For series [3], the target named is T2, Serine/threonine-protein kinase 3 (Homo sapiens, UniProt Q13188).
T2 sequence (Q13188 whole entry): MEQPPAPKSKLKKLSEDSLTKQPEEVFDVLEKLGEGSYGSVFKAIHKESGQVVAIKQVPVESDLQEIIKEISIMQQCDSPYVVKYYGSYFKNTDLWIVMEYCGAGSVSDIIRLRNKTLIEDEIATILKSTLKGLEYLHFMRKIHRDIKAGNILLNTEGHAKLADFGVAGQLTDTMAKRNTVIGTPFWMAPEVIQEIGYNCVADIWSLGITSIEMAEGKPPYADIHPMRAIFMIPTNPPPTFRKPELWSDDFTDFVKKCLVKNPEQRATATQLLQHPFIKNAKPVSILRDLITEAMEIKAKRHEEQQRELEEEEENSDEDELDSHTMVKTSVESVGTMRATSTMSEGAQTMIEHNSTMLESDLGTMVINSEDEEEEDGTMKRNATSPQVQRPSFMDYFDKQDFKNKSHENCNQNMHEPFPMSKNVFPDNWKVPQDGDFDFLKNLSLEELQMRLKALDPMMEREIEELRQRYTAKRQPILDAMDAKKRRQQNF
Briefly: Inhibition of MST2 (unknown origin).

Series [4] concerns the target RAC-alpha serine/threonine-protein kinase (Homo sapiens, UniProt P31749). Description: Inhibition of AKT1 (unknown origin).
The target of series [5] is Cyclin-dependent kinase 2 (Homo sapiens, UniProt P24941). Description: Inhibition of CDK2 (unknown origin).
Series [6] has as its target Casein kinase I isoform delta (Homo sapiens, UniProt P48730). Description: Inhibition of CSNK1D (unknown origin).
Series [7] deals with Epidermal growth factor receptor (Homo sapiens, UniProt P00533). Description: Inhibition of EGFR (unknown origin).
In series [8] the target is Insulin-like growth factor 1 receptor (Homo sapiens, UniProt P08069). Description: Inhibition of IGF1R (unknown origin).
In series [9] the target is T3, Inhibitor of nuclear factor kappa-B kinase subunit beta (Homo sapiens, UniProt O14920).
T3 sequence (O14920 whole entry): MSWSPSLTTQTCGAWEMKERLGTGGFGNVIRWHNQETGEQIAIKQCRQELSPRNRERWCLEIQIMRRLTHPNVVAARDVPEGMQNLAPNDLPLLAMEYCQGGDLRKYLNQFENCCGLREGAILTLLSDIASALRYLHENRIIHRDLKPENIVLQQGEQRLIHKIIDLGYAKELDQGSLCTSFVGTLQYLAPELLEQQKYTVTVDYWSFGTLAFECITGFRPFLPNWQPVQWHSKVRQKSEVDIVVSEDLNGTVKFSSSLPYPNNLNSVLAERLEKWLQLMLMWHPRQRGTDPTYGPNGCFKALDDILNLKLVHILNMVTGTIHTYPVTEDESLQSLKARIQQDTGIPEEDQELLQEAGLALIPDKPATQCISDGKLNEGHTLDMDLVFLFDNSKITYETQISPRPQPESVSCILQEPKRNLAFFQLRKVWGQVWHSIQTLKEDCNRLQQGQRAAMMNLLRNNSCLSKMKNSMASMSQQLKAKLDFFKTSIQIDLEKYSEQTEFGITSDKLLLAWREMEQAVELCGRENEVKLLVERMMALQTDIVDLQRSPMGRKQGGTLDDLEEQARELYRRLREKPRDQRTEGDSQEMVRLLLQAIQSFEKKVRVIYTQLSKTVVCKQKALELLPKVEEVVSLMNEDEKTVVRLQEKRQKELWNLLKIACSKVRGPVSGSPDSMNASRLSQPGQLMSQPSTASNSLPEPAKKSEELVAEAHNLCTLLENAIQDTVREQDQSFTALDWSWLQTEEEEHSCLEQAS
Description: Inhibition of IKKB (unknown origin).

Series [10] deals with Protein kinase C alpha type (Homo sapiens, UniProt P17252). Description: Inhibition of PKCA (unknown origin).
The target in series [11] is Serine/threonine-protein kinase PLK3 (Homo sapiens, UniProt Q9H4B4). Description: Inhibition of PLK3 (unknown origin).
Chain of Serine/threonine-protein kinase PLK3 (Q9H4B4 whole entry): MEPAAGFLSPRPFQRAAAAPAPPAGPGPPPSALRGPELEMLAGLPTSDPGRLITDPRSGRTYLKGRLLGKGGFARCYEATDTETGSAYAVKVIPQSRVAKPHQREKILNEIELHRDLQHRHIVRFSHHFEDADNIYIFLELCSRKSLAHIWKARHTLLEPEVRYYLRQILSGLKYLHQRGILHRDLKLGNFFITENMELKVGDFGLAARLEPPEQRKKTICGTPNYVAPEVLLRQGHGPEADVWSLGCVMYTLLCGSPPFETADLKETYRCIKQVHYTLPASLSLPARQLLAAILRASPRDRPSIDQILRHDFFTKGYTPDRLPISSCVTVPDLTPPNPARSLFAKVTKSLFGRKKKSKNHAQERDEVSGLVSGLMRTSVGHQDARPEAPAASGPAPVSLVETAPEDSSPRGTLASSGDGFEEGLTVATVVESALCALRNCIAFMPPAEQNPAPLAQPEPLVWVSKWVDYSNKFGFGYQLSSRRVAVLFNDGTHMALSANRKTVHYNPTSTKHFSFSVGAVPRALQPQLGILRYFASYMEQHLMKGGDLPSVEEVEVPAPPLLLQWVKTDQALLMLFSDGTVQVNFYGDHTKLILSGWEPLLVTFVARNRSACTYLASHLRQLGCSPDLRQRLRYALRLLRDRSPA

Chain of Insulin-like growth factor 1 receptor (P08069 31-736 limits assumed): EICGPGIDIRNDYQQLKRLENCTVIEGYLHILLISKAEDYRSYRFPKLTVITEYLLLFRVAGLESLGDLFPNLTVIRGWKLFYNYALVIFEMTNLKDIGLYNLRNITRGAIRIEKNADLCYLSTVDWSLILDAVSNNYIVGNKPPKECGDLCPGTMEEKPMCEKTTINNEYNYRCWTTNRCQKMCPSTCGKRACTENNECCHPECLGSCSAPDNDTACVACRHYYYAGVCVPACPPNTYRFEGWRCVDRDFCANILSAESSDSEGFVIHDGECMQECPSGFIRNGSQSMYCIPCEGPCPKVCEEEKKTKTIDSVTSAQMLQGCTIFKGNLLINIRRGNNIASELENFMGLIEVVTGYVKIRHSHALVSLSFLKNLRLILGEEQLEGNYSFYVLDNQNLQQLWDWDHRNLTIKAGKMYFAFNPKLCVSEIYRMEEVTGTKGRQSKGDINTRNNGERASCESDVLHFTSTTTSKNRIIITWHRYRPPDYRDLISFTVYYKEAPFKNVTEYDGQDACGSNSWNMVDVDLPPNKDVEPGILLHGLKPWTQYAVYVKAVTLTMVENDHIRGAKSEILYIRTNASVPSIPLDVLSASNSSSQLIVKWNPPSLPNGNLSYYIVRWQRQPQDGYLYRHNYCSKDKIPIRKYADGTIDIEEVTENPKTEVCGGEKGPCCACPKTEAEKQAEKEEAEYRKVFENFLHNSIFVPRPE
Chain of Insulin-like growth factor 1 receptor (P08069 741-1367 limits assumed): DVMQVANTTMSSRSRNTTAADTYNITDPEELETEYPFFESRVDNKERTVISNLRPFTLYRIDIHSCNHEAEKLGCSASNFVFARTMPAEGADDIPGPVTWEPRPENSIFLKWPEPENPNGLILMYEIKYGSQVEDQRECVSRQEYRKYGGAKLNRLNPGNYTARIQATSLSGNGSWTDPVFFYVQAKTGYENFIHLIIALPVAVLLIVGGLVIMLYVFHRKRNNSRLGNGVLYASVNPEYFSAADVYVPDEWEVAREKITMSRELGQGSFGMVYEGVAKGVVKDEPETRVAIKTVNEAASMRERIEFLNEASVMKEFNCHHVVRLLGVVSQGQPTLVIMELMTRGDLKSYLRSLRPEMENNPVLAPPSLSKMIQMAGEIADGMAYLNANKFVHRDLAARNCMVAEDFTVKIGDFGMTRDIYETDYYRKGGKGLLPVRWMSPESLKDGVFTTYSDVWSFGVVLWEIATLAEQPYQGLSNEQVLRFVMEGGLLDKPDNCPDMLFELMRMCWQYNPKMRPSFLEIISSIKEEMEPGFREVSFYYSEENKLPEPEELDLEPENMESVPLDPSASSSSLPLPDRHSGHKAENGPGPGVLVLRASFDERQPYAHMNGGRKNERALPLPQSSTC
Chain of Casein kinase I isoform delta (P48730 whole entry, canonical isoform): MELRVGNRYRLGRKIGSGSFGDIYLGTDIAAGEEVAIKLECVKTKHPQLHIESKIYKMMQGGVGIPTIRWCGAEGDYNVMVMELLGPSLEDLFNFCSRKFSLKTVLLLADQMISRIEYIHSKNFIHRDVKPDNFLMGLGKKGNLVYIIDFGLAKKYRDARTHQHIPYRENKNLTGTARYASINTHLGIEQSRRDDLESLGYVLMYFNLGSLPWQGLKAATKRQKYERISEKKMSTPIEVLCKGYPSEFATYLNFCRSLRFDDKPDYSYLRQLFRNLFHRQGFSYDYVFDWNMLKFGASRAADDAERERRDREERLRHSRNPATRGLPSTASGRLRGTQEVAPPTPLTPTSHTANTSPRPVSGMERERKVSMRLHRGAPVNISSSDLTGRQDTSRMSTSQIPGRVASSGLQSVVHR
Chain of Tyrosine-protein kinase Lck (P06239 whole entry): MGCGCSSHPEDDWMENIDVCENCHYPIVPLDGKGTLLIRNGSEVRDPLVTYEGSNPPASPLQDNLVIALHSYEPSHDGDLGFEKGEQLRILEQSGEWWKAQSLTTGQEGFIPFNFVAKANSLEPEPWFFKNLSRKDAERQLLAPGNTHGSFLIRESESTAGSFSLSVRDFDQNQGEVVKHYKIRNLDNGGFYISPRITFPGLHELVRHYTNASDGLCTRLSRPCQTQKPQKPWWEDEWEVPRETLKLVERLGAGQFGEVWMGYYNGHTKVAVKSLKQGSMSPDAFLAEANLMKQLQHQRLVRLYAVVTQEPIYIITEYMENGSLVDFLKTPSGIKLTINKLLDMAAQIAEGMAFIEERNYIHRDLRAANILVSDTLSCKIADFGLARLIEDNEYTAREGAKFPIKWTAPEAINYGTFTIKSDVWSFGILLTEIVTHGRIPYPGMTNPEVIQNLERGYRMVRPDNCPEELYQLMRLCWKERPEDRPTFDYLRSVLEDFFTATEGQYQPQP
Chain of Epidermal growth factor receptor (P00533 whole entry): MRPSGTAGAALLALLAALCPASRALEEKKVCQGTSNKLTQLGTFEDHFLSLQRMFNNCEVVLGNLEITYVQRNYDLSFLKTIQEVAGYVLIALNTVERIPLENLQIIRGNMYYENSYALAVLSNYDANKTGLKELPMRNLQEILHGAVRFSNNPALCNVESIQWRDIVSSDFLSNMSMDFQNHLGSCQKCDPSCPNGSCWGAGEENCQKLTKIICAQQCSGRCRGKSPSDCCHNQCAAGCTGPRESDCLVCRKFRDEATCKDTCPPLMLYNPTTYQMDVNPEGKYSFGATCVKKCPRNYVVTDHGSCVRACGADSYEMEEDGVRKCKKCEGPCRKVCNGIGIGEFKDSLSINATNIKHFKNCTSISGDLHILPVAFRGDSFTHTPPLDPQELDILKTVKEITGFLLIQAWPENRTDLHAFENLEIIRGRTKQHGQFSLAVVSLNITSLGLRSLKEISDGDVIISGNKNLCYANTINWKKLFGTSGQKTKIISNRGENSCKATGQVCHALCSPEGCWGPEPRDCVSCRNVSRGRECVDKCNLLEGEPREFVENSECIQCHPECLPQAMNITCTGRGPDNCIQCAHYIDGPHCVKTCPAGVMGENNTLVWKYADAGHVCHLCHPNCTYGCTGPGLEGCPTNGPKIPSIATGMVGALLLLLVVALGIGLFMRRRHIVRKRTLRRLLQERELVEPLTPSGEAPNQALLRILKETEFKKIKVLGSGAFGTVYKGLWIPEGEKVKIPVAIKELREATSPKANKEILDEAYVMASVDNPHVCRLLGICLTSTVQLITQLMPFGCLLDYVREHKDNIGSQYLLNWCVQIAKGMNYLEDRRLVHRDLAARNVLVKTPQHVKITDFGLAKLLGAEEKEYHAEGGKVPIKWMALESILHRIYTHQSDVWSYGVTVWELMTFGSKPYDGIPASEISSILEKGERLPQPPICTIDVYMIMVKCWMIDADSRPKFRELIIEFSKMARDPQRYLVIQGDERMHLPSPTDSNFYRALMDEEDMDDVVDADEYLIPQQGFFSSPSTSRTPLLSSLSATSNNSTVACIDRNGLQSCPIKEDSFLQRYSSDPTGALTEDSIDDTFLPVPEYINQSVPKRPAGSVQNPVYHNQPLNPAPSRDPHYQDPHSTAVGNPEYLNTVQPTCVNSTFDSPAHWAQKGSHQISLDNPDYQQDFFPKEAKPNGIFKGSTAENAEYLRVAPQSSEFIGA

With `Cc1cn2c(-c3cn[nH]c3)cnc2c(Nc2cc(Cc3ccccn3)ns2)n1`, the Papp A→B in [1] stood at 2.8 ×10⁻⁶ cm/s. Besides, the IC50 on Ephrin type-B receptor 4 was 390 nM; in series [2], 271 nM; in series [3], over 500 nM; in [4], over 500 nM; in [5], over 500 nM; in series [6], over 500 nM. The IC50 in series [7], in [8], in [9], in series [10] and in [11] was over 500 nM in each case.

`CCN(CCO)Cc1cc(Nc2nc(C)cn3c(-c4cn[nH]c4)cnc23)sn1`: in [1], the Papp A→B came out at 2.1 ×10⁻⁶ cm/s. Besides, the IC50 against Ephrin type-B receptor 4 is 100 nM; in series [2], under 1 nM; in [3], over 500 nM; in series [4], over 500 nM; in series [5] it was over 500 nM; in [6] it was over 500 nM. Besides, the IC50 in series [7], in series [8], in series [9], in series [10] and in series [11] was over 500 nM in each case.

For `Cc1cn2c(-c3cn[nH]c3)cnc2c(Nc2cc(C(NC(C)(C)C)c3ccccn3)ns2)n1` (single isomer, unassigned; (+)), the Papp A→B in series [1] stood at 2.4 ×10⁻⁶ cm/s. Besides, the concentration for half-maximal inhibition (IC50) on Ephrin type-B receptor 4 is 38 nM; in series [2] it was 61 nM; in series [3], over 1000 nM; in series [4], over 1000 nM; in series [5], over 1000 nM; in [6] it was over 1000 nM. Also, the IC50 in series [7], in series [8], in [9], in series [10] and in series [11] was over 1000 nM throughout.

In general, Papp A→B refers to the apparent permeability from the apical to the basolateral side of a cell layer. The IC50 is the midpoint of a concentration-inhibition curve.
